# Reference: patent US12187703B2, “Crystalline forms of N-(3-(2-(2-hydroxyethoxy)-6-morpholinopyridin-4-yl)-4-methvlphenyl)-2 (trifluoromethyl)isonicotinamide as Raf inhibitors for the treatment of cancer” (NOVARTIS AG, priority 2019, dated 2025)
# Where “and” joins values, the source holds several entries; their conditions need not be identical. Identical values can stand only once. Like-named read-outs stand apart in the source and are kept apart here.
# Experiments:
# Assay type in all cases: physicochemical
# [1] = Bulk density and flowability with ring shear tester
# Procedure: (§1) Pilot manufacture batches producing Modification HA and Form A on kilogram scale were compared for their respective bulk powder properties. The particle size distribution (PSD) was determined according to the corresponding method for release. Other measurements were performed using technical methods known in the art or as described herein.
# [2] = Stability testing, solid state bulk (UPLC, color, XRPD, TGA); design: key: A: No change of color; settings: solid state
# Procedure: (§2) X-ray powder diffraction (XRPD) analysis of all polymorph forms was performed using a Bruker D8 Discover x-ray diffractometer with XYZ stage. Measurements were taken at about 40 kV and 1 mA under the following conditions:
# (§3) Crystalline Monohydrate Form HA was analysed by thermogravimetric analysis (TGA) using a Discovery Thermogravimetric Analysis Calorimeter from TA instruments under the following conditions (see Table 6).
# (§4) No notable change in chemical purity, nor change in XRPD, nor change in TGA, was observed.
# [3] = Behaviour under compression, grinding and granulation with water
# [4] = Solubility at 25° C., 24 hours slurry; settings: for Solubility / solubility at 24 h: approx. at 25° C., target concentration 10 mg/mL; for Final pH / XRPD of solid after equilibration: 25° C.; for solubility at 24 h: 25 °C, thermodynamic from solid, read-out: Solubility
# Procedure: A sample was weighed in a glass vial and solvent added to make a slurry followed by stirring or shaking at 25° C. for 24 hours. The amount of sample and solvents depends on the target concentration, e.g. if the target concentration is 10 mg/mL, the weight of the sample should be 10 mg and the amount of solvent volume should be 1 mL. The solid and liquid are separated by centrifugation at 13000 rpm for 2 minutes with 0.2 μm membrane. The filtrate is then used for the solubility test after appropriate dilution. The diluent is from the UPLC method. The solids obtained after equilibration were analyzed by XRPD after being dried at 40° C. under vacuum for 2 hours. DSC/TGA analysis was conducted for selected samples.
# [5] = Stability testing, solid state bulk (UPLC, color, XRPD, TGA); settings: for Degradation Products (DP), UPLC / TGA (%) Weight loss at 175° C. / XRPD: solid state
# Procedure: as §2, §3, §4
# [6] = Particle size distribution by Fraunhofer light diffraction
# Procedure: as §1
# A few drops of the dispersing aid were added to an appropriate amount of test substance. The mixture was mixed intensively, e.g. on a vortex mixer, in order to wet the substance thoroughly and to form a smooth and homogeneous paste. The resultant paste was diluted with the dispersion liquid to a final volume of 3-6 ml and the dispersion mixed again. The cumulative volume distribution was determined using a laser light diffraction instrument as stated above. The parameters could be adjusted accordingly so that the test dispersion is representative, homogeneous and well dispersed.
# Particle sizes were determined at the undersize values of 10%, 50% and 90% (×10, ×50, ×90), and additional values in question, from the cumulative volume distribution.
# [7] = Hygroscopicity, storage and solubility conclusions
# From the text: The term “non-hygroscopic” as used herein refers to a compound showing a water uptake of at most 2 w-% in the sorption cycle when measured with GMS (or DVS) at a relative humidity in the range of from 0 to 95% RH and a temperature of (25.0±0.1) ° C., based on the weight of the compound. Non-hygroscopic is preferably up to 0.2%.
# [8] = 1 week/80° C., glass vials with screw caps
# [9] = 1 week/80° C./75% RH, open bottles
# [10] = 2 weeks/50° C., glass vials with screw caps
# [11] = 2 weeks/50° C./75% RH, open bottles
# [12] = 2 weeks/80° C., glass vials with screw caps
# [13] = 2 weeks/80° C./75% RH, open bottles
# [14] = 3 months/40° C./75% RH, open bottles
# [15] = 4 weeks/50° C., glass vials with screw caps
# [16] = 4 weeks/50° C./75% RH, open bottles
# [17] = Xenon light (approx. 1200 kLuxh)
# [18] = pilot manufacture batch, kilogram scale
smiles,measurement,setting,value
"Cc1ccc(NC(=O)c2ccnc(C(F)(F)F)c2)cc1-c1cc(OCCO)nc(N2CCOCC2)c1 [Monohydrate HA, N-(3-(2-(2-hydroxyethoxy)-6-morpholinopyridin-4-yl)-4-methylphenyl)-2-(trifluoromethyl)isonicotinamide]","Factor of bulk density, Monohydrate HA versus Modification A",[1]; 696 kg/m^3 versus 71 kg/m^3,~10
same,"Bulk flowability with ring shear tester, rating in words",[1]; under 1250 Pa normal stress,“free flowing”
same,Technical measurement of bulk flowability with ring shear tester,[1]; under 1250 Pa normal stress,13.7
same,Technical measurement of bulk density with ring shear tester,[1]; under no consolidation stress,696 kg/m^3
same,Color (CL),[2]; [8],A
same,Color (CL),[2]; [9],A
same,Color (CL),[2]; [10],A
same,Color (CL),[2]; [11],A
same,Color (CL),[2]; [12],A
same,Color (CL),[2]; [13],A
same,Color (CL),[2]; [14],A
same,Color (CL),[2]; [15],A
same,Color (CL),[2]; [16],A
same,Color (CL),[2]; [17],A
same,"Stability upon compression, grinding and wet granulation with water",[3],"stable upon compression, grinding and wet granulation with water"
same,Solubility,"[4]; FaSSIF (pH 6.5), LOQ = 0.002517 mg/mL",LOQ
same,Final pH,"[4]; FaSSIF, pH 6.5",6.44
same,XRPD of solid after equilibration,"[4]; FaSSIF, pH 6.5",No change
same,solubility at 24 h,"[4]; FeSSIF, pH 5.8, fessif, FeSSIF (pH 5.8), LOQ = 0.002517 mg/mL",3.2 µg/mL
same,Final pH,"[4]; FeSSIF, pH 5.8",5.69
same,XRPD of solid after equilibration,"[4]; FeSSIF, pH 5.8",No change
same,Final pH,[4]; SGF (pH 2),2.07
same,XRPD of solid after equilibration,[4]; SGF (pH 2),No change
same,solubility at 24 h,"[4]; SGF, pH 2, simulated gastric fluid, SGF (pH 2), LOQ = 0.002517 mg/mL",2.2 µg/mL
same,Final pH,[4]; Water,7.22
same,XRPD of solid after equilibration,[4]; Water,No change
same,Solubility,"[4]; Water, LOQ = 0.002517 mg/mL",LOQ
same,solubility at 24 h,"[4]; acetonitrile, organic solvent or mixture, Acetonitrile",> 10000 µg/mL
same,solubility at 24 h,"[4]; dichloromethane, organic solvent or mixture, Dichloromethane",> 10000 µg/mL
same,solubility at 24 h,"[4]; ethanol abs., organic solvent or mixture, Ethanol abs.",> 10000 µg/mL
same,solubility at 24 h,"[4]; ethyl acetate, organic solvent or mixture, Ethyl acetate",> 10000 µg/mL
same,solubility at 24 h,"[4]; methanol, organic solvent or mixture, Methanol",> 10000 µg/mL
same,solubility at 24 h,"[4]; octanol, organic solvent or mixture, Octanol",> 10000 µg/mL
same,Final pH,[4]; pH 1 (0.1N HCl),1.06
same,XRPD of solid after equilibration,[4]; pH 1 (0.1N HCl),No change
same,Solubility,"[4]; pH 1 (0.1N HCl), LOQ = 0.002517 mg/mL",LOQ
same,Final pH,[4]; pH 2 (0.01N HCl),2.12
same,XRPD of solid after equilibration,[4]; pH 2 (0.01N HCl),No change
same,Solubility,"[4]; pH 2 (0.01N HCl), LOQ = 0.002517 mg/mL",LOQ
same,Final pH,[4]; pH 4.7 acetate buffer,4.73
same,XRPD of solid after equilibration,[4]; pH 4.7 acetate buffer,No change
same,Solubility,"[4]; pH 4.7 acetate buffer, LOQ = 0.002517 mg/mL",LOQ
same,Final pH,[4]; pH 6.8 phosphate buffer,6.74
same,XRPD of solid after equilibration,[4]; pH 6.8 phosphate buffer,No change
same,Solubility,"[4]; pH 6.8 phosphate buffer, LOQ = 0.002517 mg/mL",LOQ
same,Final pH,[4]; pH 9.0 borate buffer,8.88
same,XRPD of solid after equilibration,[4]; pH 9.0 borate buffer,No change
same,Solubility,"[4]; pH 9.0 borate buffer, LOQ = 0.002517 mg/mL",LOQ
same,Stability upon light exposure,[5]; 1200 kLuxh for 12 h,stable upon light exposure
same,"Degradation Products (DP), UPLC",[5]; [8],0.27%
same,TGA (%) Weight loss at 175° C.,[5]; [8],3.60% and 3.56%
same,XRPD,[5]; [8],No change
same,"Degradation Products (DP), UPLC",[5]; [9],0.30% and 0.26%
same,TGA (%) Weight loss at 175° C.,[5]; [9],3.76% and 3.86%
same,XRPD,[5]; [9],No change
same,"Degradation Products (DP), UPLC",[5]; [10],0.29% and 0.33%
same,TGA (%) Weight loss at 175° C.,[5]; [10],3.76% and 3.89%
same,XRPD,[5]; [10],No change
same,"Degradation Products (DP), UPLC",[5]; [11],0.27% and 0.25%
same,TGA (%) Weight loss at 175° C.,[5]; [11],3.66% and 3.65%
same,XRPD,[5]; [11],No change
same,"Degradation Products (DP), UPLC",[5]; [12],0.29%
same,TGA (%) Weight loss at 175° C.,[5]; [12],3.67% and 3.76%
same,XRPD,[5]; [12],No change
same,"Degradation Products (DP), UPLC",[5]; [13],0.26% and 0.28%
same,TGA (%) Weight loss at 175° C.,[5]; [13],3.60% and 3.66%
same,XRPD,[5]; [13],No change
same,"Degradation Products (DP), UPLC",[5]; [14],0.53% and 0.30%
same,TGA (%) Weight loss at 175° C.,[5]; [14],3.55% and 3.60%
same,XRPD,[5]; [14],No change
same,"Degradation Products (DP), UPLC",[5]; [15],0.28% and 0.27%
same,TGA (%) Weight loss at 175° C.,[5]; [15],3.75% and 3.63%
same,XRPD,[5]; [15],No change
same,"Degradation Products (DP), UPLC",[5]; [16],0.30% and 0.27%
same,TGA (%) Weight loss at 175° C.,[5]; [16],3.78% and 3.69%
same,XRPD,[5]; [16],No change
same,"Degradation Products (DP), UPLC",[5]; [17],0.36% and 0.30%
same,TGA (%) Weight loss at 175° C.,[5]; [17],3.76% and 3.90%
same,XRPD,[5]; [17],No change
same,Stability in bulk,"[5]; up to 80° C. over an extended period of time, no notable change in chemical purity, XRPD, TGA",highly stable in bulk
same,"Factor of diameter X10, Monohydrate HA vs. Modification A",[6]; 131 μm vs. 2 μm,> 10
same,"Diameter X of PSD measured during release, X50",[6]; [18],X50: 277 μm
same,"Diameter X of PSD measured during release, X90",[6]; [18],X90: 414 μm
same,"Solubility, overall rating",[7],adequate solubility
same,Stability when stored in bulk quantities,[7],stable when stored in bulk quantities
same,Hygroscopicity,"[7]; non-hygroscopic defined as water uptake at most 2 w-%, 0 to 95% RH, 25° C. (GMS/DVS)",non-hygroscopic
